From the METLIN SMRT retention time set (Domingo-Almenara et al. 2019)

Assay: gradient 5% acetonitrile 3 min, to 50% in 2 min, to 85% in 15 min, held 3 min, 100 µL/min
Conditions: column: Zorbax Extend-C18 2.1 x 50 mm; eluents: water / acetonitrile, 0.1% formic acid
How it was run: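 Using water and acetonitrile that each contained 0.1% formic acid, mixtures of ~100 pure standards were separated at 100 μL/min on a Zorbax Extend-C18 column (2.1 × 50 mm, 1.8 μm). The HPLC fed a quadrupole time-of-flight mass spectrometer working in positive and negative ionization mode, with dead and dwell volumes of 40 μL and 900 μL. Data were acquired over 3 months. Retention time was read from computationally picked adduct peaks after manual inspection of each.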

SMILES | RP-LC retention time [s]
CCc1ccccc1NC(=O)Cn1c(N2CCOCC2)nc(C)cc1=O | 674
CCCCC(=O)N1C[C@H](c2nc(-c3ccccc3)no2)[C@@H](C)C1 | 971
Nc1nc(N)c2nc(-c3cccc(O)c3)cnc2n1 | 599
O=C(NOCC(O)CO)c1cc(Br)c(F)c(F)c1Nc1ccc(I)cc1F (centres undefined) | 879
Cc1ccc(N2C(=O)N(CC(=O)N3CCCCC3C)C3CS(=O)(=O)CC32)cc1Cl (centres undefined) | 851
Cc1cc2c(=O)n(CC(=O)N3CCCc4ccccc43)c3cccnc3n2n1 | 767
O=C(NC1CCCCCC1)C1CCN(C(=O)c2ncn3c2COC(c2ccccc2)C3)CC1 (centres undefined) | 794
CCN1C(=O)COc2ccc(-c3noc(-c4ccccc4)n3)cc21 | 1140
CCn1nccc1C(=O)Nc1ccc2sc(C)nc2c1 | 697
COc1cccc(NC(=O)Cn2c(C)nc3onc(C)c3c2=O)c1 | 708
COc1ccc(-c2noc(C3CCCN3C(=O)NC3CCCCC3)n2)cc1 (centres undefined) | 948
Cc1cc(Cl)ccc1N1C(=O)CN(S(C)(=O)=O)CC1(C)C(=O)NC1CCCCCC1 (centres undefined) | 984
COc1ccc(-c2cc(C(=O)NCC(c3ccc(C)o3)N(C)C)no2)cc1 (centres undefined) | 684
COC(=O)c1ccc2c(=O)n(-c3ccc4c(c3)OCO4)c(N3CCCC3)nc2c1 | 885
COc1ccc(C(=O)Nc2nc(-c3ccc4c(c3)NC(=O)C(C)O4)cs2)cc1OC (centres undefined) | 864
Cc1ccc(NC(=O)C2CC(=O)N(CCc3c[nH]c4ccc(F)cc34)C2)cc1C (centres undefined) | 867
O=C(NCc1ccc(F)c(Cl)c1)c1cn2ccccc2n1 | 723
O=C1CC(c2noc(-c3cccc(F)c3)n2)CN1c1ccccc1 (centres undefined) | 958
CCOc1ccc(N2C(=O)C3N=NN(Cc4nc(-c5cccc(C)c5)no4)C3C2=O)cc1 (centres undefined) | 1040
CCc1cc(-c2csc(S(=O)(=O)Nc3ccc(F)c(Cl)c3)c2)on1 | 1020
O=C(O)c1ccc(Nc2ncnc3c2cnn3Cc2ccccc2)cc1 | 772
COCCN1C(=O)CCc2cc(NC(=O)c3ccco3)ccc21 | 654
COC(=O)C(C)n1nc2nc(Nc3ccc(C)c(F)c3)cc(C)n2c1=O (centres undefined) | 1100

SMILES | RP-LC retention time [s]
Cc1oc(-c2ccc(Cl)cc2)nc1Cn1nnc(C(=O)Nc2cc(F)ccc2F)c1C | 1310
CNC(=O)c1c2c(nc3ccc(F)cc13)CCCC2 | 571
COc1ccc(N2CCN(CCNC(=O)C3CCCN(c4cc(=O)n(C)c(=O)n4C)C3)CC2)cc1 (centres undefined) | 583
Cc1ccc(CNC(=O)c2nnc(-c3ccc(S(=O)(=O)N4CCCC4)cc3)o2)cc1 | 940
CCOC(=O)c1sc2ncnc(N3CCN(c4ccccc4OC)CC3)c2c1C | 1200
COc1ccc(-c2nnc(-c3ccc(OC)c(S(=O)(=O)N(C)C)c3)o2)cc1OC | 807
O=C(Nc1ccccc1F)N1CC2CN(S(=O)(=O)c3ccc(F)cc3)CC(C1)O2 | 758
O=C(NC1CCCC1)c1nc(-c2cn(-c3ccc(Cl)cc3)nn2)no1 | 837
Cc1ccc(S(=O)(=O)N2c3ccccc3NC3=C(C(=O)CCC3)C2c2ccco2)cc1 (centres undefined) | 837
O=C(Nc1nc2ccccc2s1)c1ccc([N+](=O)[O-])cc1Cl | 877
CCCC(=O)Nc1ccc(-c2nc(Cn3nc(C)cc3C)c(C)o2)cc1 | 818
COc1cc(-c2nc3ncccn3c2NC2CCCCC2)cc(OC)c1OC | 724
O=C(Cc1cccc(C(F)(F)F)c1)N1CCN(c2nnc3ccccn23)CC1 | 702
CCCc1nc(-c2c(C)cc(C)nc2NC(=O)C2CCCCC2)no1 | 876
O=C(Nc1ccccc1Cl)c1c(O)c2cccnc2n(-c2ccc(F)cc2)c1=O | 1270
Cc1ccc(NC(=O)Cn2nc3c(Oc4cccc(F)c4)nccn3c2=O)cc1F | 894
Cc1nc(-c2cc(S(=O)(=O)Nc3ccc(Cl)cc3F)c(C)s2)cs1 | 1030
CCC(=O)N(C1CCOCC1)C1CCN(S(=O)(=O)c2ccc(Cl)cc2C)CC1 | 911
O=C(NCc1csc(C2CCCN(C(=O)c3ccccc3)C2)n1)C1CC1 (centres undefined) | 693
COC1=CC(=O)O[C@H](/C=C/c2ccc3c(c2)OCO3)C1 | 809
O=C(c1nc(-c2cccc(F)c2)n2c1CCCCC2)N1CCN(c2ncccn2)CC1 | 724
Cn1cc(S(=O)(=O)N2CCC(C(=O)Nc3ccccn3)CC2)cc1C(=O)N1CCCC1 | 635
O=C(C1CCN(c2nc3ccc(-c4cncnc4)nc3s2)CC1)N1CCCCC1 | 787

SMILES | RP-LC retention time [s]
Cc1ccc(S(=O)(=O)c2ccc([N+](=O)[O-])o2)cc1 | 873
Cc1ccc(NC(=O)N2CC(c3nc(C(C)C)nn3C)C2)cc1F | 706
CSc1ccc(-c2nc3cnccn3c2Nc2cccc(C(=O)N3CCCCC3)c2)cc1 | 807
CCc1nnc(NC(=O)CCc2ccc(-c3ccc(F)cc3)o2)s1 | 855
Cn1cnc2c(C(=O)NCCC3=CCCCC3)nn(-c3ccc(Cl)cc3)c2c1=O | 959
CCc1nnc2nc(N3CCN(C(=O)c4ccc(N(C)C)cc4)CC3)cc(C)n12 | 609
CC(C)CCNC(=O)C1(C)Cn2nc(C(=O)NCc3ccccc3Br)cc2C(=O)N1C (centres undefined) | 838
Cc1cc2nn(CC(=O)N3CCOCC3)c(=O)n2c(-c2cccc(Cl)c2)n1 | 708
Cc1ccc(C(=O)N2CCCC(COc3ccc(C(=O)NC(C)C)cc3)C2)c(C)c1 (centres undefined) | 916
COc1cc2c(cc1OC)-c1cc(=Nc3c(C)cc(C)cc3C)n(C)c(=O)n1CC2 | 765
Cc1csc(-c2ccc(CNC(=O)c3cccnc3)cc2)n1 | 672
Cc1ccc2nc(-c3ccc(NS(=O)(=O)c4cn(C)c(=O)n(C)c4=O)cc3)sc2c1 | 870
O=C(CCC1CCCC1)Nc1ccc(-c2nnc3n2CCCC3)cc1 | 765
O=C1N(C2CCN(S(=O)(=O)c3cccnc3)CC2)C(c2ccccc2)C12CCCC2 (centres undefined) | 912
CC(C)c1nnc2n1CCN(C(=O)CCC1CCCC1)C2 | 714
O=C(NCc1ccco1)C1CN(S(=O)(=O)c2ccccc2)CC12CCCCC2 (centres undefined) | 942
CCOC(=O)C(C)Sc1nnc(CNC(=O)c2ccc(OC)cc2)n1C1CCCCC1 (centres undefined) | 805
Cc1cccc(Oc2nccnc2N2CCC(C(=O)NC(C)c3ccc(C)c(C)c3)CC2)c1 (centres undefined) | 1130
Cc1nc(N)n(CC(=O)NCc2ccccc2)c(=O)c1C | 611
CCn1cc(CCNC(=O)CC(C)C)c2cccnc21 | 656
CCN1C(=O)c2cc(C(=O)NCc3ccccc3Cl)nn2CC1(C)C(=O)NC1CCCC1 (centres undefined) | 817
COc1ccc(F)cc1S(=O)(=O)N1CCC(C(=O)Nc2cc(C)on2)CC1 | 745
O=C(NC1CCN(c2cc(-c3cccs3)[nH]n2)C1)c1ccccn1 (centres undefined) | 667

SMILES | RP-LC retention time [s]
Cc1cc(C(=O)NCC23CCCC=C2N(CC2CC2)C(=O)CC3)n(C)n1 (centres undefined) | 800
CCC1CN2C=NC(N3CCN(C(=O)NCc4cccc(F)c4)CC3)=CC2=N1 (centres undefined) | 615
COc1cccc(NC(=O)C2CCN(S(=O)(=O)c3cc(-c4noc(C5CC5)n4)cs3)CC2)c1 | 1000
CC1CCN(c2nn(CC(=O)Nc3ccccc3F)c(=O)c3ccccc23)CC1 | 1090
CCn1ccc2cc(S(=O)(=O)N3CCCC(C(=O)NCCCc4ccccc4)C3)ccc21 (centres undefined) | 1000
COc1ccc(CCC(=O)N2CCC3(C2)C(=O)N(C)c2ccc(OC)cc23)cc1 (centres undefined) | 800
COc1ccccc1CNC(=O)Cn1ccc2ccc(N3CCOCC3)nc21 | 858
O=S(=O)(c1ccc2c(c1)CCC2)N1CCC(Cc2nncn2-c2ccccc2)C1 (centres undefined) | 846
CC1CN(c2ccc(Br)cc2)c2nc3c(c(=O)n(CCCO)c(=O)n3C)n2C1 (centres undefined) | 833
COc1ccccc1N1CCN(c2cc(SCC(=O)Nc3cc(F)ccc3F)ncn2)CC1 | 1130
O=C1C(OC2CCN(S(=O)(=O)c3ccc(C(F)(F)F)cc3)CC2)CCN1CC1CC1 (centres undefined) | 925
Cc1ccccc1NC(=O)Cn1ncc2c(c1=O)N(CC1CC1)C(=O)CS2 | 797
COc1ccc2c(C)c(CCC(=O)N3CCC(C(N)=O)CC3)c(=O)oc2c1 | 645
CC(NC(=O)C1CCCN(c2nccnc2Oc2ccccc2)C1)c1ccccc1 (centres undefined) | 986
CCN(C(=O)Cc1ccccc1)c1nc(-c2ccccc2)cs1 | 1270
CCc1cc(=O)n(CC(=O)Nc2cc(F)cc(F)c2)c(N2CCOCC2)n1 | 802
Cc1noc([C@@H]2CC(F)(F)CN2S(=O)(=O)c2ccccc2)n1 | 858
O=C(Cn1cnc2nc3c(cc2c1=O)CCCC3)Nc1cccc(F)c1 | 721
COCc1nnc(NC(=O)C2CC(=O)N(CCc3c[nH]c4ccc(Cl)cc34)C2)s1 (centres undefined) | 724
COc1cccc(-n2ccc(=O)c(-c3nc(-c4cccc(F)c4)no3)n2)c1 | 905
